No end group written: not given here.
Target: T1, ACE from rabbit lungs (Oryctolagus cuniculus, UniProt P12822)
T1 construct: ACE from rabbit lungs and HHL was supplied by Sigma-Aldrich; purchased Sigma-Aldrich (St. Louis, MO, USA); host or cells: rabbit lung tissue
T1 sequence (P12822 34-1310): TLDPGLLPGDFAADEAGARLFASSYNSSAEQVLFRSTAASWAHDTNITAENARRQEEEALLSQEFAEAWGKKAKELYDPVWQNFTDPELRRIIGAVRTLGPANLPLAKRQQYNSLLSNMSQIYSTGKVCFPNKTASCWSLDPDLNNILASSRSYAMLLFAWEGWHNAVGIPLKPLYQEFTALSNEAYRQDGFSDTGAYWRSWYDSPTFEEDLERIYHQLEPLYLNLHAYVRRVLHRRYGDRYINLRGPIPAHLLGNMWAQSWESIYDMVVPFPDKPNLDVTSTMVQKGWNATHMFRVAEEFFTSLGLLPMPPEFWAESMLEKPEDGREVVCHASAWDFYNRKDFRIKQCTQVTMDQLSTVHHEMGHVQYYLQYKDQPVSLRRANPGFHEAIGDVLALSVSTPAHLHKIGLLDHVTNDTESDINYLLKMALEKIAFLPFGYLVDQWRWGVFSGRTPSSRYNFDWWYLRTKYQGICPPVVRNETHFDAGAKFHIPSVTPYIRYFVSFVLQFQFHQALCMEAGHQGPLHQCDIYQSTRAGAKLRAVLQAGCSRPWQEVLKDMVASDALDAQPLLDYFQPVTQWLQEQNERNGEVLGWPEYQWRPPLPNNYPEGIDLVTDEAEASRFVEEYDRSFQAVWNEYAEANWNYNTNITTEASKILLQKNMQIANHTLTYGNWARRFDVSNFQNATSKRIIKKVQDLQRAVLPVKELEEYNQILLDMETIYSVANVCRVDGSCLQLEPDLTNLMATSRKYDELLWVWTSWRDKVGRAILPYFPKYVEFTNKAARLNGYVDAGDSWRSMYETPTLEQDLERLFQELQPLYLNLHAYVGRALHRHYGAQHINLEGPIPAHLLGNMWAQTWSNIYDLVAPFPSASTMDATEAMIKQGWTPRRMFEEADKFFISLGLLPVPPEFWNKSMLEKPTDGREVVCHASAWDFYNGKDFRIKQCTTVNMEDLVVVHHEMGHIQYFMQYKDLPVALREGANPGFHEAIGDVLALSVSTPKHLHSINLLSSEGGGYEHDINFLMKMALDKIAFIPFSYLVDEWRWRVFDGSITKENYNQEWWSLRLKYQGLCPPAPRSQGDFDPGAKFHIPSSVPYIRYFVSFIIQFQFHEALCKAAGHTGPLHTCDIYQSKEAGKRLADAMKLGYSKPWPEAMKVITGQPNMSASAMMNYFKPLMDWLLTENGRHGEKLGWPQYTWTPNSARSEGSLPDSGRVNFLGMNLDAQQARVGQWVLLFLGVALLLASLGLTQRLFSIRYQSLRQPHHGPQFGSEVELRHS
Experiment: ACE inhibitory activity assay by RP-HPLC (HHL substrate, hippuric acid detection)
Format: biochemical
Conditions: for ACE inhibitory activity (in words): chromatograms at 0.048 mg/mL
Text: The potential oligopeptides obtained by docking were chemically synthesized by the Beijing Scilight Biotechnology Ltd., Co. (Beijing, China). The purity levels of the synthesized oligopeptides were all greater than 98% by HPLC analysis. ACE from rabbit lungs and HHL was supplied by Sigma-Aldrich (St. Louis, MO, USA). Acetonitrile of HPLC grade was purchased from Fisher Scientific (Pittsburgh, PA, USA). Lisinopril was supplied by Beijing HWRK Chem Co., Ltd. (Beijing, China) with more than 98% purity. All other used chemicals were of analytical grade.
The assay of in vitro ACE inhibitory activity was performed by RP-HPLC method by Yuan. Initially, the mixture was incubated at 37 °C for 10 min, including 10 μL of samples and 20 μL ACE (2 mU). After adding 20 μL of 2 mM HHL, the mixture continued to be incubated for 60 min until acetonitrile was added to terminate reaction. HA from the hydrolysis of the substrate HHL was detected by RP-HPLC on a C18 column (250 × 4.6 mm, 5 μm, Tianhe) at 228 nm. The column was eluted at a flow rate of 1 mL/min using 25% (v/v) acetonitrile in water with 0.05% trifluoroacetic acid. Lisinopril and borate buffer solution were used as positive and negative control, respectively. The formula (1) for computing ACE inhibitory rate is shown as follows. Wherein, Acontrol is the peak area of HA by negative control and Asample is the peak area of HA by the sample. The IC50 was calculated by the dosage and efficiency curve based on the 50% inhibition of ACE. (1) Inhibitory activity (%)=Acontrol−Asample/Acontrol×100%

| Molecule | ACE inhibitory activity (in words) (RP-HPLC) | further results |
| --- | --- | --- |
| NPATY [NPATY] | – | IC50 (RP-HPLC on C18 column, 228 nm, 10 μL sample + 20 μL ACE (2 mU), 37 °C 10 min pre-incubation, 20 μL of 2 mM HHL, 60 min, from dosage and efficiency curve): 61.9 ± 2.77 µM |
| VSAIGF [oligopeptide from in silico proteolysis of adlay prolamins, chemically synthesized] | could not obtain the desirable activities of ACE | – |
| NCCCC[C@H](N[C@@H](CCc1ccccc1)C(=O)O)C(=O)N1CCC[C@H]1C(=O)O [Lisinopril, lisinopril, reference compound] | – | ACE inhibition ratio (lisinopril 2 × 10^−9 mol/L, RP-HPLC, 228 nm, 37 °C, 2 mM HHL, 60 min): 77.86% ± 0.15% |
| NCHEF [oligopeptide from in silico proteolysis of adlay prolamins, chemically synthesized] | could not obtain the desirable activities of ACE | – |

From article PMC5187899, “Discovery of Anti-Hypertensive Oligopeptides from Adlay Based on In Silico Proteolysis and Virtual Screening” (International Journal of Molecular Sciences, 2016)
